The test system of the assay is ovarian tumor cells. In words: EDR assay on cells from solid tumors of patients. The format is cell-based, human. As to conditions: FIG. 4; tumors from 4 patients, four days with drug. On the procedure:
Freshly resected solid tumor biopsies were received within 24 hours of surgery. Species were processed for assay after retaining a portion of the tumor for paraffin embedding and histopathologic confirmation of specimen viability and tissue diagnosis. The remaining specimen was dissociated into small fragments using sterile scissors. The small tissue fragments were then exposed to collagenase and DNAase for 2 hours with mixing a CO2 incubator in order to release the tumor cells from the connective tissue stroma. The resulting cell suspension was washed, and cell counts determined from a cytospin preparation. Tumor cells were resuspended at 40,000 cells per ml in 0.3% agarose in RMPI 1640 supplemented with 15% FCS, glutamine and antibiotics, and 0.5 ml were plated into each well of a 24 well plate over 0.5 ml layer of 0.5% agarose. These culture conditions prevent cell adherence, thereby allowing only transformed cells to proliferate. Additionally, the cells grow into three dimensional spheroids, recapitulating their in vivo morphology.
Retinoid drugs were added 24 hours after plating to insure specimen reequilibration to a growth environment after the rigors of transport and processing. […] After the agarose-cell suspension was liquefied at 90° C., cells were harvested onto glass fiber filters, which were counted in 5 ml scintillation fluid using a Beckman 6500 liquid scintillation counter. […]

Take `CC1(C)CCC(C)(C)c2cc(C(=O)Nc3ccc(C(=O)O)c(F)c3)ccc21` [Compound 2]: the “ovarian tumor cell proliferation” value is recorded as “inhibits this tumor cell proliferation in a concentration dependent manner”.

The values above are taken from patent US6610744B2, “Methods of treatment with compounds having RARα receptor specific or selective activity” (Allergan, Inc., priority 1995, dated 2003).
